Measurements from ChEMBL document CHEMBL5241071, “Covalent Small Molecule Immunomodulators Targeting the Protease Active Site” (J Med Chem, 2021).

Tests used:
[1] = target: T1, Granzyme A (Homo sapiens) (UniProt P12544); assay: Inhibition of human recombinant GzmA assessed as Kobs/[I]
T1 sequence (whole entry): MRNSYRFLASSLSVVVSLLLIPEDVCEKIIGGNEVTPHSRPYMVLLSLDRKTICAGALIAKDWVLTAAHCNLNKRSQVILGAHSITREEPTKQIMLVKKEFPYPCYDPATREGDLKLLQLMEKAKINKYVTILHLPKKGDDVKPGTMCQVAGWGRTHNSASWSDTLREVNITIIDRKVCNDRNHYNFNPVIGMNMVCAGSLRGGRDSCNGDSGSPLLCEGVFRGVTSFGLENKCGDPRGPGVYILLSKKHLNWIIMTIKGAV

Neutrophil elastase = target: T2, Neutrophil elastase (Homo sapiens, UniProt P08246); assay: Inhibition of human NE
T2 sequence (P08246 whole entry): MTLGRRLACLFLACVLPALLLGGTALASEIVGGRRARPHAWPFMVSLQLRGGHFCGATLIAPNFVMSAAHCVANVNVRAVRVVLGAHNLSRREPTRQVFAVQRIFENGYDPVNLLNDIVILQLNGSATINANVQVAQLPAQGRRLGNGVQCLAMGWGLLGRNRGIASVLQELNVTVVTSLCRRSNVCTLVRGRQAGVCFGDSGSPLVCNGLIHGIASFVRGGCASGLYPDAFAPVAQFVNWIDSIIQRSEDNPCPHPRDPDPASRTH

| SMILES | kobs/[I] [1] [M⁻¹ s⁻¹] | IC50 (Neutrophil elastase) [nM] |
| --- | --- | --- |
| N=C(N)SCCOc1oc(=O)c2cc(NC(=O)Nc3ccccc3)ccc2c1Cl | 94000 |  |
| O=S(=O)(F)Oc1ccccc1S(=O)(=O)F |  | 240 |
